The experiment relates to wild-type M. tuberculosis. Description: microbe, parasite or virus in culture. The class given is cell-based, Mycobacterium tuberculosis. To be noted: for MIC / IC90: Mycobacterium tuberculosis; for MIC: read-out: MIC.

Converted amounts (≈) assume the structure as drawn. Read-outs that look alike come from different tables or passages of the source.

`CN1CCC(N2CCC(c3ccc(C(C)(C)C)cc3)CC2)CC1` [Molecule 4PP-25, 4-(4-(tert-Butyl)phenyl)-1'-methyl-1,4'-bipiperidine]: the MIC was greater than 20 µM. The MIC (120 h) is greater than 20 µM.

As for `CC(NC(=O)Nc1nc(-c2ccc(Cl)cc2)cs1)C1CC2C=CC1C2` (stereo not shown) [HBU-5], the IC90 stood at 13 µM. As for `OC1CCC(N2CCC(c3ccccc3)CC2)CC1` (stereo not shown) [Molecule 4PP-23, 4-(4-Phenylpiperidin-1-yl)cyclohexan-1-ol], the “anti-tubercular activity (in words)” value was “loss of activity”. The MIC (120 h) is greater than 20 µM.

Turning to `COC(=O)C1(c2ccccc2)CCN(CC2CCCCC2)CC1` [Molecule 4PP-39, Methyl 1-(cyclohexylmethyl)-4-phenyl-piperidine-4-carboxylate; 2,2,2-trifluoroacetic acid], under “120 h”, the MIC was greater than 20 µM. Regarding `Clc1cccc(C2CCN(CC3CCCCC3)CC2)c1` [Molecule 4PP-29, 4-(3-Chlorophenyl)-1-(cyclohexylmethyl)piperidine; 2,2,2-trifluoroacetic acid], the MIC was 4.1 µM (≈ 1.2 µg/mL). Further, the MIC (120 h) stood at 4.1 µM (≈ 1.2 µg/mL). `O=S(=O)(C1CCCCC1)N1CCC(c2ccccc2)CC1` [Molecule 4PP-9, 1-(Cyclohexylsulfonyl)-4-phenylpiperidine]: the “anti-tubercular activity (in words)” value is given as “lost activity”. In addition, the MIC (120 h) was greater than 20 µM. Taken in the same sequence, the figures for `CC(C)(C)c1ccc(C2CCN(C3CCC(C(=O)O)CC3)CC2)cc1` (stereo not shown) [Molecule 4PP-19, 4-(4-(4-(tert-Butyl)phenyl)piperidin-1-yl)cyclohexane-1-carboxylic acid] were “loss in activity” and greater than 20 µM. For the molecule `CC(C)(C)c1ccc(C2CCN(C3CCC(=O)CC3)CC2)cc1` [Molecule 4PP-20, 4-[4-(4-t-Butyl-phenyl)-piperidin-1-yl]-cyclohexanone], the “anti-tubercular activity (in words)” value is “loss in activity”. Besides, the MIC (120 h) is greater than 20 µM. In the case of `CC(C)(C)NC(=O)N1CCC(c2ccccc2)CC1` [Molecule 4PP-11, N-(tert-butyl)-4-phenylpiperidine-1-carboxamide], the “anti-tubercular activity (in words)” value is “lost activity”. Besides, the MIC (120 h) is greater than 20 µM.

As to `Cc1nc(-c2ccccn2)nc(NCc2ccccc2)c1Cl` [APDP-3], the IC90 was 6.3 µM. As for `COc1ccc(C2CCN(CC3CCCCC3)CC2F)cc1.O=C(O)C(F)(F)F` (stereo not shown) [Molecule 4PP-53, 1-(Cyclohexylmethyl)-3-fluoro-4-(4-methoxyphenyl)piperidine; 2,2,2-trifluoroacetic acid], the “anti-tubercular activity (in words)” value is on record as “not tolerated”. Besides, the MIC (120 h) is greater than 20 µM. As to `C1=CC2(CCN(CC3CCCCC3)CC2)c2ccccc21` [Molecule 4PP-35, 1'-(Cyclohexylmethyl)spiro[indene-1,4'-piperidine]; 2,2,2-trifluoroacetic acid], the MIC is 6.3 µM (≈ 1.77 µg/mL). The MIC (120 h) came out at 6.3 ± 0.1 µM (≈ 1.77 µg/mL). `COC(=O)C1CCC(N2CCC(c3ccc(C(C)(C)C)cc3)CC2)CC1` (stereo not shown) [Molecule 4PP-18, Methyl 4-(4-(4-(tert-butyl)phenyl)piperidin-1-yl)cyclohexane-1-carboxylate]: the “anti-tubercular activity (in words)” value is listed as “loss in activity”. For the same molecule, where the note is “120 h”, the MIC is greater than 20 µM. Taken in the same sequence, the figures for `O=C(N1CCCCC1)N1CCC(c2ccccc2)CC1` [Molecule 4PP-12, (4-Phenylpiperidin-1-yl)(piperidin-1-yl)methanone] were “lost activity” and greater than 20 µM. Consider `c1ccc(C2CCN(C3CCOCC3)CC2)cc1` [Molecule 4PP-26, 4-Phenyl-1-(tetrahydro-2H-pyran-4-yl)piperidine], for which the MIC was greater than 20 µM. Also, the MIC (120 h) is greater than 20 µM.

For the molecule `CC(C)(C)CC(=O)N1CCC(c2ccccc2)CC1` [Molecule 4PP-14, 3,3-Dimethyl-1-(4-phenylpiperidin-1-yl)butan-1-one], the “anti-tubercular activity (in words)” value is listed as “did not furnish activity”. Also, the MIC (120 h) was greater than 20 µM. Taken in the same sequence, the figures for `FC1CN(CC2CCCCC2)CCC1c1ccccc1.O=C(O)C(F)(F)F` (stereo not shown) [Molecule 4PP-51, 1-(Cyclohexylmethyl)-3-fluoro-4-phenyl-piperidine; 2,2,2-trifluoroacetic acid] were “not tolerated” and greater than 20 µM. For `O=C(NCCc1ccc(Br)cc1)NC12CC3CC(CC(C3)C1)C2` [HBU-4], the IC90 was determined as 12 µM. As to `CC(C)(C)c1ccc(C2CCN(C(=O)C3CCCCC3)CC2)cc1` [Molecule 4PP-6, (4-(4-(t-Butyl)phenyl)piperidin-1-yl)(cyclohexyl)methanone], the “anti-tubercular activity (in words)” value was “lost whole-cell activity”. Besides, the MIC (120 h) is greater than 20 µM. Taken in the same sequence, the figures for `CC(C)(C)CC(C)(C)N1CCN(c2ccc(C(C)(C)C)cc2)CC1` [Molecule 4PP-49, 1-(4-(t-Butyl)phenyl)-4-(2,4,4-trimethylpentan-2-yl)piperazine] were “loss in activity” and greater than 5 µM.

As to `CC(C)(C)CC(C)(C)N1CCN(c2ccccc2)CC1` [Molecule 4PP-50, 1-Phenyl-4-(2,4,4-trimethylpentan-2-yl)piperazine], the “anti-tubercular activity (in words)” value is given as “loss in activity”. In addition, under “120 h”, the MIC is greater than 10 µM. Consider `CN1CCC(N2CCC(c3ccccc3)CC2)CC1` [Molecule 4PP-27, 1'-Methyl-4-phenyl-1,4'-bipiperidine], for which the MIC is greater than 20 µM. For the same molecule, the MIC (120 h) is greater than 20 µM. Turning to `CC(=O)NCC1(c2ccccc2)CCN(CC2CCCCC2)CC1` [Molecule 4PP-38, N-[[1-(Cyclohexylmethyl)-4-phenyl-4-piperidyl]methyl]acetamide; 2,2,2-trifluoroacetic acid], the MIC (120 h) is greater than 20 µM.

Take `CC(C)(C)c1ccc(C2CCN(C3CCOCC3)CC2)cc1` [Molecule 4PP-24, 4-(4-(tert-Butyl)phenyl)-1-(tetrahydro-2H-pyran-4-yl)piperidine]: the MIC was greater than 20 µM. The MIC (120 h) is greater than 20 µM. As for `Brc1cccc(C2CCN(CC3CCCCC3)CC2)c1` [Molecule 4PP-28, 4-(3-Bromophenyl)-1-(cyclohexylmethyl)piperidine; 2,2,2-trifluoroacetic acid], the MIC came out at 2.8 µM (≈ 0.942 µg/mL). Also, the MIC (120 h) was 2.8 ± 0.7 µM (≈ 0.942 µg/mL). Consider `OCC1(c2ccccc2)CCN(CC2CCCCC2)CC1` [Molecule 4PP-40, [1-(Cyclohexylmethyl)-4-phenyl-4-piperidyl]methanol; 2,2,2-trifluoroacetic acid], for which, where the note is “120 h”, the MIC was greater than 20 µM.

On to `CC(=O)C1(c2ccccc2)CCN(CC2CCCCC2)CC1` [Molecule 4PP-36, 1-[1-(Cyclohexylmethyl)-4-phenyl-4-piperidyl]ethanone], for which the MIC (120 h) was greater than 20 µM. Regarding `COC(=O)C1CCC(N2CCC(c3ccccc3)CC2)CC1` (stereo not shown) [Molecule 4PP-22, Methyl 4-(4-phenylpiperidin-1-yl)cyclohexane-1-carboxylate], the “anti-tubercular activity (in words)” value is given as “loss of activity”. For the same molecule, under “120 h”, the MIC is greater than 20 µM. The molecule `Cc1nc(-c2ccccn2)nc(NCCNc2ccc(C(F)(F)F)cn2)c1Cl` [APDP-2] showed an IC90 of 33 µM. Same read-out and setting: under `CC(=O)c1ccc(NC(=O)NC(C)C23CC4CC(CC(C4)C2)C3)cc1` (stereo not shown) [HBU-3] stands 29 µM; under `Cc1cc(C)n(-c2nc(N)cc(-c3cccc(F)c3)n2)n1` [PZP-2], 7.4 µM.

In the case of `CC(C)(C)CC(C)(C)N1CCC(c2ccccc2)CC1` [Molecule 4PP-44, 4-Phenyl-1-(1,1,3,3-tetramethyl-butyl)-piperidine], the IC90 amounted to 5.2 µM and the MIC was 5.2 µM (≈ 1.42 µg/mL). The MIC (120 h) amounted to 5.2 ± 5 µM (≈ 1.42 µg/mL). `CCC1(N2CCC(c3ccc(C(C)(C)C)cc3)CC2)CCCCC1` [Molecule 4PP-2, 4-(4-tert-Butyl-phenyl)-1-(1-ethyl-cyclohexyl)-piperidine]: the MIC was 2 µM (≈ 0.655 µg/mL). Moreover, the MIC (120 h) came to 2 ± 0.5 µM (≈ 0.655 µg/mL). `CC(C)(C)NC(=O)N1CCC(c2ccc(C(C)(C)C)cc2)CC1` [Molecule 4PP-7, N-(t-Butyl)-4-(4-(tert-butyl)phenyl)piperidine-1-carboxamide]: the “anti-tubercular activity (in words)” value is on record as “loss of activity”. Moreover, the MIC (120 h) is greater than 20 µM.

For the molecule `O=C(C1CCCCC1)N1CCC(c2ccccc2)CC1` [Molecule 4PP-10, Cyclohexyl(4-phenylpiperidin-1-yl) methanone], the “anti-tubercular activity (in words)” value is on record as “lost activity”. Moreover, where the note is “120 h”, the MIC is greater than 20 µM. With `O=C(O)C(F)(F)F.c1ccc2c(C3CCN(CC4CCCCC4)CC3)cccc2c1` [Molecule 4PP-31, 1-(Cyclohexylmethyl)-4-(1-naphthyl)piperidine; 2,2,2-trifluoroacetic acid], it took 2.7 µM to reach the 90% level (IC90) and the MIC was 2.7 µM. Besides, where the note is “120 h”, the MIC came to 2.7 ± 2.4 µM. For the molecule `CN(C)C1CCC(N2CCC(c3ccc(C(C)(C)C)cc3)CC2)CC1` (stereo not shown) [Molecule 4PP-17, 4-(4-(4-(t-Butyl)phenyl)piperidin-1-yl)-N,N-dimethylcyclohexan-1-amine], the “anti-tubercular activity (in words)” value is reported as “detrimental to the activity”. Further, for the setting “120 h”, the MIC was greater than 20 µM.

Turning to `N#CC1(c2ccccc2)CCN(CC2CCCCC2)CC1` [Molecule 4PP-37, 1-(Cyclohexylmethyl)-4-phenyl-piperidine-4-carbonitrile; 2,2,2-trifluoroacetic acid], where the note is “120 h”, the MIC was greater than 20 µM. On to `CC(C)(C)CC(C)(C)N1CC=C(c2c[nH]c3ncccc23)CC1` [Molecule 4PP-45, 3-(1-(2,4,4-Trimethylpentan-2-yl)-1,2,3,6-tetrahydropyridin-4-yl)-1H-pyrrolo[2,3-b]pyridine], for which the “anti-tubercular activity (in words)” value is “inactive”. Further, under “120 h”, the MIC was greater than 20 µM. Taken in the same sequence, the figures for `FC1CN(CC2CCCCC2)CCC1c1ccc(Cl)cc1.O=C(O)C(F)(F)F` (stereo not shown) [Molecule 4PP-52, 4-(4-Chlorophenyl)-1-(cyclohexylmethyl)-3-fluoro-piperidine; 2,2,2-trifluoroacetic acid] were “not tolerated” and greater than 20 µM. For the molecule `CC(C)(C)c1ccc(C2CCN(CC3CCCCC3)CC2)cc1` [Molecule 4PP-3, 4-(4-t-Butylphenyl)-1-(cyclohexylmethyl)piperidine; 2,2,2-trifluoroacetic acid], the MIC was found to be 6.8 µM (≈ 2.13 µg/mL). Besides, the MIC (120 h) came out at 6.8 ± 0.9 µM (≈ 2.13 µg/mL).

The values above are taken from paper PMC9435431, “Novel chemical entities inhibiting Mycobacterium tuberculosis growth identified by phenotypic high-throughput screening” (Scientific Reports, 2022).
